Assay results: patent US8987502B2, “Oleanolic acid amidate derivatives, preparation methods and uses thereof” (Hangzhou Bensheng Pharmaceutical Co., Ltd., priority 2011, dated 2015)
In brackets after ≈: the same amount, converted by molar mass. Each block holds one compound with its values, some of them ahead of it.

Tests used:
[1] = test system: K562/adr; assay: MTT leukemia cell proliferation inhibition, K562/adr; format: cell-based; conditions: Homo sapiens, 72 h; for inhibition at 16 µg/mL: 16 μg/mL compound, read-out: IR (inhibition rate); for IC50: MTT
Excerpt: (§1) Leukemia cell lines: leukemia cell lines: K562/adr (drug-resistant, chronic myeloid leukemia, CML), NB4 (acute promyelocytic leukemia, AML), Kasumi-1 (acute myeloid leukemia M2 type, AML-M2), Jurkat (acute lymphoblastic leukemia, ALL), all of which are donated by Cancer Research Institute of Zhejiang University, China; and H9 (acute lymphoblastic leukemia, ALL), which is purchased from China Center for Type Culture Collection (CCTCC).
(§2) Reagents: The standard sample of oleanolic acid (OA) is purchased from Hua Kang Pharmaceutical Raw Material Factory, Shifang City, Sichuan, China; and the amidated oleanolic acid derivatives are prepared according to the present invention.
(§3) Obtaining 6000 well-growing leukemia cells and inoculating them into wells of a 96-well cell culture plate. The culture medium is the 1640 cell culture medium containing 10% fetal bovine serum. After adding the amidated oleanolic acid derivatives of different concentrations and mixing uniformly, placing the plate in a carbon dioxide cell incubator (5% CO2) at 37° C. and incubated for 72 hours. Then the relative number of viable cells is determined by the MTT method. In this experiment, the cell proliferation inhibition rate in control group (not treated with any compound) is set as 0%.

[2] = test system: NB4; assay: MTT leukemia cell proliferation inhibition, NB4; format: cell-based; conditions: Homo sapiens, NB-4; for inhibition at 16 µg/mL: NB4, 16 μg/mL compound, 72 h, read-out: IR (inhibition rate); for IC50: NB4, 72 h, MTT
Excerpt: as §1, §2, §3

[3] = test system: Kasumi-1; assay: MTT leukemia cell proliferation inhibition, Kasumi-1; format: cell-based; conditions: Homo sapiens; for inhibition at 16 µg/mL: Kasumi-1, 16 μg/mL compound, 72 h, read-out: IR (inhibition rate); for IC50: Kasumi-1, 72 h, MTT
Excerpt: as §1, §2, §3

[4] = test system: H9; assay: MTT leukemia cell proliferation inhibition, H9; format: cell-based, human; conditions: for inhibition at 16 µg/mL / IC50: Homo sapiens; for inhibition at 16 µg/mL: H9, 16 μg/mL compound, 72 h, read-out: IR (inhibition rate); for IC50: H9, 72 h, MTT
Excerpt: as §1, §2, §3

[5] = test system: Jurkat; assay: MTT leukemia cell proliferation inhibition, Jurkat; format: cell-based; conditions: Homo sapiens, 72 h; for inhibition at 16 µg/mL: 16 μg/mL compound, read-out: IR (inhibition rate); for IC50: MTT
Excerpt: as §1, §2, §3

[6] = test system: RPMI8226; assay: MTT multiple myeloma cell proliferation inhibition, RPMI8226; format: cell-based; conditions: Homo sapiens, RPMI-8226; for inhibition at 16 µg/mL: RPMI8226, 16 μg/mL compound, 72 h, read-out: IR (inhibition rate); for IC50: RPMI8226, 72 h, MTT
Protocol: Multiple myeloma cell lines: RPMI8226 (multiple myeloma), purchased from Fuxiang Bio-tech Co. Ltd., Shanghai, China.
as §3

[7] = test system: A549; assay: MTT solid tumor cell proliferation inhibition, A549; format: cell-based, human; conditions: Homo sapiens; for inhibition at 16 µg/mL: A549, 16 μg/mL compound, 72 h, read-out: IR (inhibition rate); for IC50: A549, 72 h, MTT
Protocol: (§4) Human solid tumor cell lines: Hep-2 (laryngeal carcinoma), A549 (human lung cancer), CaES-17 (esophageal cancer cell), PC-3 (prostate cancer), CNE (nasopharyngeal carcinoma cell), and SK-OV-3 (ovarian cancer cell), all of which are purchased from China Center For Type Culture Collection; RKO (human colon adenocarcinoma cell), MGC 803 (human gastric cancer cell), MG63 (osteosarcoma) and U87 MG (malignant glioma cell), all of which are purchased from Fuxiang Bio-tech Co. Ltd., Shanghai, China; PANC-1 (pancreatic cancer), Hep G2 (human liver cancer cell), Becap37 (human breast cancer cell), and Hela (human cervical cancer cell), all of which are donated by Cancer Research Institute of Zhejiang University, China.
(§5) Obtaining 4000 well-growing human solid tumor cells and inoculating them into wells of a 96-well cell culture plate. The culture medium is DMEM High Glucose cell culture medium containing 10% fetal bovine serum. The plate is placed in a carbon dioxide cell incubator (5% CO2) at 37° C. for 24 hours for incubation. After being added with the amidated oleanolic acid derivatives of different concentrations and mixed uniformly, the plate is placed in a carbon dioxide cell incubator (5% CO2) at 37° C. for 72 hours for incubation. Then the relative number of the living cells is determined by the MTT method. In this experiment, the cell proliferation inhibition rate in control group (not treated with any compound) is set as 0%.

[8] = test system: PANC-1; assay: MTT solid tumor cell proliferation inhibition, PANC-1; format: cell-based, human; conditions: Homo sapiens; for inhibition at 16 µg/mL: PANC-1, 16 μg/mL compound, 72 h, read-out: IR (inhibition rate); for IC50: PANC-1, 72 h, MTT
Protocol: as §4, §5

[9] = test system: Becap37; assay: MTT solid tumor cell proliferation inhibition, Becap37; format: cell-based; conditions: Homo sapiens; for inhibition at 16 µg/mL: Becap37, 16 μg/mL compound, 72 h, read-out: IR (inhibition rate); for IC50: Becap37, 72 h, MTT
Protocol: as §4, §5

[10] = test system: MG 63; assay: MTT solid tumor cell proliferation inhibition, MG 63; format: cell-based, human; conditions: for IC50: Homo sapiens, MG 63, 72 h, MTT; for IR (inhibition rate): MG 63, 16 μg/mL compound, 72 h
Protocol: as §4, §5

[11] = test system: Hep G2; assay: MTT solid tumor cell proliferation inhibition, Hep G2; format: cell-based; conditions: Homo sapiens, HepG2; for inhibition at 16 µg/mL: Hep G2, 16 μg/mL compound, 72 h, read-out: IR (inhibition rate); for IC50: Hep G2, 72 h, MTT
Protocol: as §4, §5

[12] = test system: RKO; assay: MTT solid tumor cell proliferation inhibition, RKO; format: cell-based; conditions: Homo sapiens, 72 h; for inhibition at 16 µg/mL: 16 μg/mL compound, read-out: IR (inhibition rate); for IC50: MTT
Protocol: as §4, §5

[13] = test system: U87 MG; assay: MTT solid tumor cell proliferation inhibition, U87 MG; format: cell-based, human; conditions: Homo sapiens, U-87 MG, U87 MG, 72 h; for inhibition at 16 µg/mL: 16 μg/mL compound, read-out: IR (inhibition rate); for IC50: MTT
Protocol: as §4, §5

[14] = test system: Hela; assay: MTT solid tumor cell proliferation inhibition, Hela; format: cell-based, human; conditions: Homo sapiens, Hela, 72 h; for inhibition at 16 µg/mL: 16 μg/mL compound, read-out: IR (inhibition rate); for IC50: MTT
Protocol: as §4, §5

[15] = test system: CaES-17; assay: MTT solid tumor cell proliferation inhibition, CaES-17; format: cell-based, human; conditions: Homo sapiens, CaEs17; for inhibition at 16 µg/mL: CaES-17, 16 μg/mL compound, 72 h, read-out: IR (inhibition rate); for IC50: CaES-17, 72 h, MTT
Protocol: as §4, §5

[16] = test system: CNE; assay: MTT solid tumor cell proliferation inhibition, CNE; format: cell-based, human; conditions: Homo sapiens, CNE, 72 h; for inhibition at 16 µg/mL: 16 μg/mL compound, read-out: IR (inhibition rate); for IC50: MTT
Protocol: as §4, §5

[17] = test system: Hep-2; assay: MTT solid tumor cell proliferation inhibition, Hep-2; format: cell-based, human; conditions: Homo sapiens; for inhibition at 16 µg/mL: Hep-2, 16 μg/mL compound, 72 h, read-out: IR (inhibition rate); for IC50: Hep-2, 72 h, MTT
Protocol: as §4, §5

[18] = test system: MGC803; assay: MTT solid tumor cell proliferation inhibition, MGC803; format: cell-based, human; conditions: Homo sapiens, MGC-803; for inhibition at 16 µg/mL: MGC803, 16 μg/mL compound, 72 h, read-out: IR (inhibition rate); for IC50: MGC803, 72 h, MTT
Protocol: as §4, §5

[19] = test system: PC-3; assay: MTT solid tumor cell proliferation inhibition, PC-3; format: cell-based, human; conditions: for inhibition at 16 µg/mL / IC50: Homo sapiens; for inhibition at 16 µg/mL: PC-3, 16 μg/mL compound, 72 h, read-out: IR (inhibition rate); for IC50: PC-3, 72 h, MTT
Protocol: as §4, §5

[20] = test system: SK-OV-3; assay: MTT solid tumor cell proliferation inhibition, SK-OV-3; format: cell-based, human; conditions: Homo sapiens; for inhibition at 16 µg/mL: SK-OV-3, 16 μg/mL compound, 72 h, read-out: IR (inhibition rate); for IC50: SK-OV-3, 72 h, MTT
Protocol: as §4, §5

IC50 [1]: 2.4 µg/mL (≈ 4.84 µM) | IC50 [2]: 6.51 µg/mL (≈ 13.1 µM) | IC50 [3]: > 16 µg/mL | IC50 [4]: 6.3 µg/mL (≈ 12.7 µM) | IC50 [5]: 14.3 µg/mL (≈ 28.9 µM) | IC50 [6]: 3.51 µg/mL (≈ 7.08 µM) | IC50 [7]: > 16 µg/mL | IC50 [8]: > 16 µg/mL | IC50 [9]: > 16 µg/mL | IC50 [10]: 13.2 µg/mL (≈ 26.5 µM) | IC50 [11]: > 16 µg/mL | IC50 [12]: > 16 µg/mL | IC50 [13]: > 16 µg/mL | IC50 [14]: 11.9 µg/mL (≈ 24 µM) | IC50 [15]: 18.9 µg/mL (≈ 38.1 µM) | IC50 [16]: > 16 µg/mL | IC50 [17]: > 16 µg/mL | IC50 [18]: 14.4 µg/mL (≈ 29 µM) | IC50 [19]: 13.1 µg/mL (≈ 26.3 µM) | IC50 [20]: 7.63 µg/mL (≈ 15.4 µM)
Structure (SMILES): CC1(C)CC[C@]2(NC(=O)C3CC3)CC[C@]3(C)C(=CC[C@@H]4[C@@]5(C)CC[C@H](O)C(C)(C)[C@@H]5CC[C@]43C)[C@@H]2C1 [BS-OA-097]
inhibition at 16 µg/mL [1]: 91.3% | inhibition at 16 µg/mL [2]: 93.4% | inhibition at 16 µg/mL [3]: 42.9% | improvement of cell inhibition rate as compared with oleanolic acid ([4]; H9 cells): ~4 fold | inhibition at 16 µg/mL [4]: 85.3% | inhibition at 16 µg/mL [5]: 56.6% | inhibition at 16 µg/mL [6]: 95.3% | inhibition at 16 µg/mL [7]: 38.1% | inhibition at 16 µg/mL [8]: 38.8% | inhibition at 16 µg/mL [9]: 41.3% | IR (inhibition rate) [10]: 78.6% | inhibition at 16 µg/mL [11]: 35.1% | inhibition at 16 µg/mL [12]: 29% | inhibition at 16 µg/mL [13]: 37.4% | inhibition at 16 µg/mL [14]: 64.4% | inhibition at 16 µg/mL [15]: 45.7% | inhibition at 16 µg/mL [16]: 40% | inhibition at 16 µg/mL [17]: 28.5% | inhibition at 16 µg/mL [18]: 56.1% | inhibition at 16 µg/mL [19]: 56.6% | improvement of cell inhibition rate as compared with oleanolic acid ([19]; PC-3 cells): ~2 fold | inhibition at 16 µg/mL [20]: 68.9%

IC50 [1]: 7.83 µg/mL (≈ 14.6 µM) | IC50 [2]: 8.22 µg/mL (≈ 15.3 µM) | IC50 [3]: > 16 µg/mL | IC50 [4]: 12.5 µg/mL (≈ 23.2 µM) | IC50 [5]: > 16 µg/mL | IC50 [6]: 6.44 µg/mL (≈ 12 µM) | IC50 [7]: > 16 µg/mL | IC50 [8]: > 16 µg/mL | IC50 [9]: > 16 µg/mL | IC50 [10]: > 16 µg/mL | IC50 [11]: > 16 µg/mL | IC50 [12]: > 16 µg/mL | IC50 [13]: > 16 µg/mL | IC50 [14]: 14.2 µg/mL (≈ 26.3 µM) | IC50 [15]: > 16 µg/mL | IC50 [16]: > 16 µg/mL | IC50 [17]: > 16 µg/mL | IC50 [18]: 16 µg/mL (≈ 29.7 µM) | IC50 [19]: 17.4 µg/mL (≈ 32.4 µM) | IC50 [20]: 14.6 µg/mL (≈ 27.2 µM)
Structure (SMILES): CC1(C)CC[C@]2(NC(=O)c3cccs3)CC[C@]3(C)C(=CC[C@@H]4[C@@]5(C)CC[C@H](O)C(C)(C)[C@@H]5CC[C@]43C)[C@@H]2C1 [BS-OA-098]
inhibition at 16 µg/mL [1]: 81.9% | inhibition at 16 µg/mL [2]: 96.3% | inhibition at 16 µg/mL [3]: 35.7% | inhibition at 16 µg/mL [4]: 62.4% | inhibition at 16 µg/mL [5]: 20.1% | inhibition at 16 µg/mL [6]: 97.6% | inhibition at 16 µg/mL [7]: 24.3% | inhibition at 16 µg/mL [8]: 34.7% | inhibition at 16 µg/mL [9]: 28.6% | IR (inhibition rate) [10]: 20.9% | inhibition at 16 µg/mL [11]: 28.4% | inhibition at 16 µg/mL [12]: 27% | inhibition at 16 µg/mL [13]: 29.8% | inhibition at 16 µg/mL [14]: 63.1% | inhibition at 16 µg/mL [15]: 39.9% | inhibition at 16 µg/mL [16]: 35.8% | inhibition at 16 µg/mL [17]: 19.6% | inhibition at 16 µg/mL [18]: 46.3% | inhibition at 16 µg/mL [19]: 45.1% | inhibition at 16 µg/mL [20]: 53.5%
